In publication PMC8777717, “Thiolation of Myco-Synthesized Fe3O4-NPs: A Novel Promising Tool for Penicillium expansium Laccase Immobilization to Decolorize Textile Dyes and as an Application for Anticancer Agent” (Journal of Fungi, 2022):

How the values were obtained:
[1] = system: T1, P. expansium laccase; assay: spectrophotometric oxidation assay at […] nm, Lineweaver-Burk; assay type: biochemical, Penicillium expansum; conditions: free enzyme; 0.2-0.8 mM substrate; 0.1 M sodium acetate pH 5.0, 40 °C
T1 construct: gene EC 1.10.3.2; native enzyme purified from culture filtrate (ABTS-supplemented medium; ammonium sulfate, DEAE-cellulose, Sephadex G-200); single SDS-PAGE band ~60 kDa; free (soluble) enzyme

[2] = system: T1, P. expansium laccase; assay: Lineweaver-Burk; assay type: biochemical, Penicillium expansum; conditions: free enzyme; 0.2-0.8 mM substrate; 0.1 M sodium acetate pH 5.0, 40 °C
Text: Lineweaver-Burk on P. expansium laccase

CCn1c(=NN=c2sc3cc(S(=O)(=O)O)ccc3n2CC)sc2cc(S(=O)(=O)O)ccc21 [ABTS]
Km [1]: 4150 µM

Oc1ccccc1O [catechol]
Km [2]: 1310 µM
